How the values were obtained:
[1] = Solid phase binding assay (ELISA) of biotin-labeled peptides to immobilized LTA; parameters: species or system S. aureus; conditions: biotin-labeled peptide 5-20 μg/mL; LTA 5 μg/mL coated
Procedure: FIG. 3. Binding of biotin-labeled CD6-derived peptides to immobilized PAMPs from Gram- and Gram+ origin. Increasing concentrations (5-20 μg/mL) of biotin-labeled CD6- (PD1, PD2, PD3 and cons), DMBT1- (pbs1), and CD5- (PD1) derived peptides were added to 96-well ELISA plates sensitized with E. coli 0111:B4 LPS (A) or S. aureus LTA (B) (5 μg/mL each in PBS). Following overnight incubation at 4° C. bound peptides or proteins were developed by addition of horseradish peroxidase (HRP)-labeled streptavidin and 3,3′,5,5′-tetramethylbenzidine (TMB) substrate and further readings at OD 405-620 nm. Results are expressed as mean±SD of duplicates from one representative experiment of three performed. Statistical analysis was performed by two-way ANOVA (*,P<0.05; **, P<0.01; ***, P<0.001).
Solid Phase Binding Assays. 96-well microtiter plates (Nunc, Roskilde, Denmark) were coated overnight at 4° C. with 5 μg/mL of purified LPS (E. coli 0111:B4, Sigma L2630) or LTA (S. aureus, Sigma L2515) in PBS, and then incubated for 2 h at room temperature in blocking solution (20 mM Tris-HCl pH 7.4 plus 0.05% Tween 20 and 1% BSA). Biotin-labeled peptides/proteins (2.5-20 μg/mL) were added and incubated overnight at 4° C. in blocking solution. After extensive washing, bound peptides/proteins were detected by the addition of horseradish peroxidase (HRP)-labeled streptavidin (1:5,000 dilution; DAKO) for 1 h at room temperature. Color was developed by adding 3,3′,5,5′-tetramethylbenzidine (TMB) liquid substrate (Sigma), and optical density read at 405-620 nm.

[2] = test system: mouse splenocytes exposed to LPS; test: LPS-induced cytokine release by mouse splenocytes; format: cell-based, C57BL/6 mice; conditions: LPS 0.5 μg/mL, 48 h, peptide 0.5, 5 and 20 μg/mL
Procedure: FIG. 6. Effect of CD6-derived peptides on in vitro LIPS-induced cytokine release by mouse splenocytes. Total spleen cell suspensions (2×10^5) from C57BL/6 mice (n=7) were stimulated in triplicate for 48 h with LPS (0.5 μg/mL), in the presence or absence of increasing concentrations (0.5, 5, and 20 μg/mL) of CD6-derived peptides (PD1, PD2, PD3, and Pcons). Cytokine levels in culture supernatants were determined by ELISA and results expressed in pg/mL as mean±SD of triplicates. Viability was >75% at 48 h in all experimental conditions. Statistical analysis was performed using a 2-tailed Mann-Whitney test, with confidence intervals of 95% (*, P<0.05; **, P<0.01; ***, P<0.001).
Spleens from 6-8 week old C57BL/6 mice (Charles River) were disaggregated by filtering through a cell strainer and, after erythrocyte lysis, cells were resuspended in RPMI 1640 with L-glutamine (Lonza) plus 10% fetal calf serum (BioWest), 100 U/mL penicillin, 100 μg/mL streptomycin and 50 μM 2-(3 Mercaptoethanol (Merck). Cells (2×10^5) were stimulated for 48 h (at 37° C. in a humidified atmosphere with 5% CO2) in U-bottomed 96-well plates (Biofil) containing LPS (0.5 μg/mL; E. coli O111:B4), in the presence or absence of increasing peptides (0.5-20 μg/mL). Culture supernatants were harvested and mouse cytokines measured by ELISA following manufacturer's instructions (BD Biosciences OptEIA sets).

[3] = test system: mice undergoing CLP-induced septic shock; test: Plasma cytokine levels following CLP-induced sepsis; format: in vivo, C57BL/6J mice; conditions: 20 h post CLP; 6 mg/kg i.v. at +1 h; vs saline-treated group
Procedure: (§1) FIG. 9. Therapeutic effect of CD6.PD3 infusion on cytokine and bacterial load levels following CLP-induced sepsis. (A) C57BL/6J mice were i.v. infused at +1 h post CLP with saline (n=7) or CD6.PD3 peptide (6 mg/kg; n=9), and cytokine plasma levels were monitored by ELISA at different time points (4 h and 20 h) thereafter. Data are expressed as mean±SD. (B) Same mouse groups as in (A) were monitored for blood and spleen bacterial load at 20 h following CLP induction. Data are expressed as mean±SD of CFU/mg (spleen) or CFU/μL (blood). In all cases, statistical differences were evaluated using a 2-tailed Student t-test (*, P<0.05).
Animal procedures were approved by the Animal Experimentation Ethical Committee, University of Barcelona. High-grade mortality (≥90% mortality within the first 48-72 h) CLP-induced septic shock was induced in 8-10 week old C57BL/6J male mice (20-25 g; Charles River) as previously reported (Martinez-Florensa M, et al., 2017, Protective Effects of Human and Mouse Soluble Scavenger-Like CD6 Lymphocyte Receptor in a Lethal Model of Polymicrobial Sepsis, Antimicrob Agents Chemother 61:e01391-16).

[4] = test system: mice undergoing CLP-induced septic shock; test: Blood and spleen bacterial load following CLP-induced sepsis; format: in vivo, C57BL/6J mice; conditions: 20 h post CLP; 6 mg/kg i.v. at +1 h; vs saline control group
Procedure: as §1
For the assessment of bacterial load, blood and spleen samples from CLP-treated mice were collected, homogenized and diluted aseptically in sterile PBS. Serial dilutions were plated overnight on agar with 5% sheep blood (Becton Dickinson) at 37° C. Viable bacterial counts were expressed as CFU/mL (blood) or per mg (spleen).

In the case of GQVEVHFRGVW (CD6.PD3), the “binding to immobilized LTA (ELISA)” value [1] is reported as “excelled in its ability to bind”, the IL-1β release [2] is reported as “dose-dependent inhibitory effects” and the IL-6 release [2] is reported as “dose-dependent inhibitory effects”. For the same sequence, the IL-10 release [2] was “non-statistically significant dose-dependent increased release”, the IL-1β level [3] was “significant lower levels” and the IL-6 level [3] was “significant lower levels”. For the same sequence, the TNF-α level [3] was “significant lower levels”, the “CFU isolated from blood” value [4] was “lower CFU” and the “CFU isolated from spleen” value [4] was “lower CFU”.
